Reference: ChEMBL document CHEMBL4414631 (J Med Chem, 2019)

Target: Phosphatidylinositol 4,5-bisphosphate 3-kinase catalytic subunit gamma isoform (Homo sapiens, UniProt P48736)
Conditions: not given

Chain of Phosphatidylinositol 4,5-bisphosphate 3-kinase catalytic subunit gamma isoform (P48736 whole entry, canonical isoform): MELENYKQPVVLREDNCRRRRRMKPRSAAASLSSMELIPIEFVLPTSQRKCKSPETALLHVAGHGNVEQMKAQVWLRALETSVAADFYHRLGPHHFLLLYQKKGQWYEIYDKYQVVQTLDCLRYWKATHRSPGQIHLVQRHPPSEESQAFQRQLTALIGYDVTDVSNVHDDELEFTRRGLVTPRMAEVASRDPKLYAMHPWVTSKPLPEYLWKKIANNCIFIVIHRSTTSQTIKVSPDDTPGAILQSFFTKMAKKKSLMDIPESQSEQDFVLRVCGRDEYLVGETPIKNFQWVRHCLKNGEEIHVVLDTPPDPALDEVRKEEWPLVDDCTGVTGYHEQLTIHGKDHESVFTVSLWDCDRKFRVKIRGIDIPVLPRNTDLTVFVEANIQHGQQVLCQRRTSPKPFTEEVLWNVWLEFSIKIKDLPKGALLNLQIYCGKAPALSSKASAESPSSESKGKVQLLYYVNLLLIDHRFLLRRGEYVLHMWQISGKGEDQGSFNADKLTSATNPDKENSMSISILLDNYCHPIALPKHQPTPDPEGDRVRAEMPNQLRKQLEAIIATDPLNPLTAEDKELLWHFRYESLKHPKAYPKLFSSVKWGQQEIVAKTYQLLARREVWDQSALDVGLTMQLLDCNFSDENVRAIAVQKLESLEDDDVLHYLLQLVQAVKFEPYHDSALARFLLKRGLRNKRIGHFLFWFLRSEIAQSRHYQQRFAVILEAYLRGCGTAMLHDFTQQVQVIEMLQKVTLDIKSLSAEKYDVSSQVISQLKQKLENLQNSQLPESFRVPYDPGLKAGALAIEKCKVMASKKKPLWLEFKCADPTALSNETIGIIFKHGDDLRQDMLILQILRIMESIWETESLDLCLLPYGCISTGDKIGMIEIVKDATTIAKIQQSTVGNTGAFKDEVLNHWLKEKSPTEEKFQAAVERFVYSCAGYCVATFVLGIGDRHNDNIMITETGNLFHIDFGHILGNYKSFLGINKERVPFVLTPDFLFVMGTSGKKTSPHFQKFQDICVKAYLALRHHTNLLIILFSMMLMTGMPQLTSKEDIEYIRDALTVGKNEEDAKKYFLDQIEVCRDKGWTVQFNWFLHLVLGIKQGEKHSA

Structure (SMILES) | IC50 [nM]
CNC(=O)NC1CCCN(Cc2cc3nc(-c4cccc5[nH]ccc45)nc(N4CCOCC4)c3s2)C1 (racemic) | 2510
COCC(=O)NC1CCCN(Cc2cc3nc(-c4cccc5[nH]ccc45)nc(N4CCOCC4)c3s2)C1 (racemic) | 2000
COCC(=O)NC1CCCN(Cc2cc3nc(-c4cnc(N)nc4)nc(N4CCOCC4)c3s2)C1 (racemic) | 631
CC(=O)NC1CCCN(Cc2cc3nc(-c4cnc(N)nc4)nc(N4CCOCC4)c3s2)C1 (racemic) | 158
CNC(=O)NC1CCN(Cc2cc3nc(-c4cnc(N)nc4)nc(N4CCOCC4)c3s2)C1 (racemic) | 158
CS(=O)(=O)NC1CCN(Cc2cc3nc(-c4cccc5[nH]ccc45)nc(N4CCOCC4)c3s2)C1 (racemic) | 1580
CC(=O)NC1CCCN(Cc2cc3nc(-c4cccc5[nH]ncc45)nc(N4CCOCC4)c3s2)C1 (racemic) | 1260
CNC(=O)NC1CCN(Cc2cc3nc(-c4cccc5[nH]ncc45)nc(N4CCOCC4)c3s2)C1 (racemic) | 1260
CS(=O)(=O)NC1CCCN(Cc2cc3nc(-c4cccc5[nH]ccc45)nc(N4CCOCC4)c3s2)C1 (racemic) | 1000
CC(=O)NC1CCCN(Cc2cc3nc(-c4cccc5[nH]ccc45)nc(N4CCOCC4)c3s2)C1 (racemic) | 2510
CS(=O)(=O)NC1CCN(Cc2cc3nc(-c4cccc5[nH]ncc45)nc(N4CCOCC4)c3s2)C1 (racemic) | 1260
COCC(=O)NC1CCCN(Cc2cc3nc(-c4cccc5[nH]ncc45)nc(N4CCOCC4)c3s2)C1 (racemic) | 2510
CNC(=O)NC1CCCN(Cc2cc3nc(-c4cnc(N)nc4)nc(N4CCOCC4)c3s2)C1 (racemic) | 158
CNC(=O)NC1CCCN(Cc2cc3nc(-c4cccc5[nH]ncc45)nc(N4CCOCC4)c3s2)C1 (racemic) | 3160

Target: T1, Phosphatidylinositol 4,5-bisphosphate 3-kinase catalytic subunit delta isoform (Homo sapiens, UniProt O00329)
T1 sequence (O00329 whole entry): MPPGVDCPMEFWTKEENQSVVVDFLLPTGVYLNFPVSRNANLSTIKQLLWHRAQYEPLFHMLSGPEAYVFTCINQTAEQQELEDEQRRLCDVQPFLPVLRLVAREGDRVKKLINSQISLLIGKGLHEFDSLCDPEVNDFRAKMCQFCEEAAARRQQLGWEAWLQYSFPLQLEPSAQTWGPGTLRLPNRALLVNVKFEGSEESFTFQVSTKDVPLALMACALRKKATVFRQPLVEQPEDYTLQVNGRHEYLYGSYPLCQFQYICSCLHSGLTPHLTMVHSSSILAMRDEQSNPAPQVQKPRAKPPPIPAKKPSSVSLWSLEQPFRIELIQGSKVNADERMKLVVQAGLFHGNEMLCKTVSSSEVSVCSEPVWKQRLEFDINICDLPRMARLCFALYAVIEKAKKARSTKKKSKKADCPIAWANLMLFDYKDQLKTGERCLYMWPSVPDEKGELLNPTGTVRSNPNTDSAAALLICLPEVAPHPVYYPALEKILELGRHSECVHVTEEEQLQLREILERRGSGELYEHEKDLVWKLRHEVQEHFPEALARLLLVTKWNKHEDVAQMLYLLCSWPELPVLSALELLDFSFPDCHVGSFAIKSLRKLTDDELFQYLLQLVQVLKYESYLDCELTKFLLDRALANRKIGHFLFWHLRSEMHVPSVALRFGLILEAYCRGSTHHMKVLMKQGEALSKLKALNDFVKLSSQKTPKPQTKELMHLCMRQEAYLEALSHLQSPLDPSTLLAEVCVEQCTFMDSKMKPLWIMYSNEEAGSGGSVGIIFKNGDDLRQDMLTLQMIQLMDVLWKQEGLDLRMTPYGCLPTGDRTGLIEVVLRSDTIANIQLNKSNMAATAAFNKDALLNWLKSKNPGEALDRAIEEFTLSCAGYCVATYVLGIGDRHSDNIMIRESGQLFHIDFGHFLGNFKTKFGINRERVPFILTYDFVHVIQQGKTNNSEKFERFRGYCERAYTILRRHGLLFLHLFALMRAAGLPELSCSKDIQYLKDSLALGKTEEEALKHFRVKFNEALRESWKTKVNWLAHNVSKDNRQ
Conditions: not given

Structure (SMILES) | IC50 [nM]
CNC(=O)NC1CCCN(Cc2cc3nc(-c4cccc5[nH]ccc45)nc(N4CCOCC4)c3s2)C1 (racemic) | 126
COCC(=O)NC1CCCN(Cc2cc3nc(-c4cccc5[nH]ccc45)nc(N4CCOCC4)c3s2)C1 (racemic) | 79.4
COCC(=O)NC1CCCN(Cc2cc3nc(-c4cnc(N)nc4)nc(N4CCOCC4)c3s2)C1 (racemic) | 316
CC(=O)NC1CCCN(Cc2cc3nc(-c4cnc(N)nc4)nc(N4CCOCC4)c3s2)C1 (racemic) | 79.4
CNC(=O)NC1CCN(Cc2cc3nc(-c4cnc(N)nc4)nc(N4CCOCC4)c3s2)C1 (racemic) | 158
CS(=O)(=O)NC1CCN(Cc2cc3nc(-c4cccc5[nH]ccc45)nc(N4CCOCC4)c3s2)C1 (racemic) | 25.1
CC(=O)NC1CCCN(Cc2cc3nc(-c4cccc5[nH]ncc45)nc(N4CCOCC4)c3s2)C1 (racemic) | 79.4
CNC(=O)NC1CCN(Cc2cc3nc(-c4cccc5[nH]ncc45)nc(N4CCOCC4)c3s2)C1 (racemic) | 200
CS(=O)(=O)NC1CCCN(Cc2cc3nc(-c4cccc5[nH]ccc45)nc(N4CCOCC4)c3s2)C1 (racemic) | 25.1
CC(=O)NC1CCCN(Cc2cc3nc(-c4cccc5[nH]ccc45)nc(N4CCOCC4)c3s2)C1 (racemic) | 50.1
CS(=O)(=O)NC1CCN(Cc2cc3nc(-c4cccc5[nH]ncc45)nc(N4CCOCC4)c3s2)C1 (racemic) | 63.1
COCC(=O)NC1CCCN(Cc2cc3nc(-c4cccc5[nH]ncc45)nc(N4CCOCC4)c3s2)C1 (racemic) | 100
CNC(=O)NC1CCCN(Cc2cc3nc(-c4cnc(N)nc4)nc(N4CCOCC4)c3s2)C1 (racemic) | 126
CNC(=O)NC1CCCN(Cc2cc3nc(-c4cccc5[nH]ncc45)nc(N4CCOCC4)c3s2)C1 (racemic) | 100

Test system: not listed separately
Experiment: Lipophilicity, logD of compound at pH 7.4 by HPLC-MS analysis
Conditions: buffer

Structure (SMILES) | logD
CNC(=O)NC1CCCN(Cc2cc3nc(-c4cccc5[nH]ccc45)nc(N4CCOCC4)c3s2)C1 (racemic) | 4.1
COCC(=O)NC1CCCN(Cc2cc3nc(-c4cccc5[nH]ccc45)nc(N4CCOCC4)c3s2)C1 (racemic) | 5
COCC(=O)NC1CCCN(Cc2cc3nc(-c4cnc(N)nc4)nc(N4CCOCC4)c3s2)C1 (racemic) | 3
CC(=O)NC1CCCN(Cc2cc3nc(-c4cnc(N)nc4)nc(N4CCOCC4)c3s2)C1 (racemic) | 2.5
CNC(=O)NC1CCN(Cc2cc3nc(-c4cnc(N)nc4)nc(N4CCOCC4)c3s2)C1 (racemic) | 1.7
CS(=O)(=O)NC1CCN(Cc2cc3nc(-c4cccc5[nH]ccc45)nc(N4CCOCC4)c3s2)C1 (racemic) | 4.3
CC(=O)NC1CCCN(Cc2cc3nc(-c4cccc5[nH]ncc45)nc(N4CCOCC4)c3s2)C1 (racemic) | 4
CNC(=O)NC1CCN(Cc2cc3nc(-c4cccc5[nH]ncc45)nc(N4CCOCC4)c3s2)C1 (racemic) | 2.9
CS(=O)(=O)NC1CCCN(Cc2cc3nc(-c4cccc5[nH]ccc45)nc(N4CCOCC4)c3s2)C1 (racemic) | 5
CC(=O)NC1CCCN(Cc2cc3nc(-c4cccc5[nH]ccc45)nc(N4CCOCC4)c3s2)C1 (racemic) | 4.5
CS(=O)(=O)NC1CCN(Cc2cc3nc(-c4cccc5[nH]ncc45)nc(N4CCOCC4)c3s2)C1 (racemic) | 3.5
COCC(=O)NC1CCCN(Cc2cc3nc(-c4cccc5[nH]ncc45)nc(N4CCOCC4)c3s2)C1 (racemic) | 4.5
CNC(=O)NC1CCCN(Cc2cc3nc(-c4cnc(N)nc4)nc(N4CCOCC4)c3s2)C1 (racemic) | 2.6
CNC(=O)NC1CCCN(Cc2cc3nc(-c4cccc5[nH]ncc45)nc(N4CCOCC4)c3s2)C1 (racemic) | 3.6

Target: Phosphatidylinositol 4,5-bisphosphate 3-kinase catalytic subunit beta isoform (Homo sapiens, UniProt P42338)
Experiment: Inhibition of PI3Kbeta (unknown origin) using biotin-PIP3 as substrate preincubated for 15 mins followed by substrate addition and measured after 60 mins by fluorescence polarization assay
Conditions: not given

Chain of Phosphatidylinositol 4,5-bisphosphate 3-kinase catalytic subunit beta isoform (P42338 whole entry, canonical isoform): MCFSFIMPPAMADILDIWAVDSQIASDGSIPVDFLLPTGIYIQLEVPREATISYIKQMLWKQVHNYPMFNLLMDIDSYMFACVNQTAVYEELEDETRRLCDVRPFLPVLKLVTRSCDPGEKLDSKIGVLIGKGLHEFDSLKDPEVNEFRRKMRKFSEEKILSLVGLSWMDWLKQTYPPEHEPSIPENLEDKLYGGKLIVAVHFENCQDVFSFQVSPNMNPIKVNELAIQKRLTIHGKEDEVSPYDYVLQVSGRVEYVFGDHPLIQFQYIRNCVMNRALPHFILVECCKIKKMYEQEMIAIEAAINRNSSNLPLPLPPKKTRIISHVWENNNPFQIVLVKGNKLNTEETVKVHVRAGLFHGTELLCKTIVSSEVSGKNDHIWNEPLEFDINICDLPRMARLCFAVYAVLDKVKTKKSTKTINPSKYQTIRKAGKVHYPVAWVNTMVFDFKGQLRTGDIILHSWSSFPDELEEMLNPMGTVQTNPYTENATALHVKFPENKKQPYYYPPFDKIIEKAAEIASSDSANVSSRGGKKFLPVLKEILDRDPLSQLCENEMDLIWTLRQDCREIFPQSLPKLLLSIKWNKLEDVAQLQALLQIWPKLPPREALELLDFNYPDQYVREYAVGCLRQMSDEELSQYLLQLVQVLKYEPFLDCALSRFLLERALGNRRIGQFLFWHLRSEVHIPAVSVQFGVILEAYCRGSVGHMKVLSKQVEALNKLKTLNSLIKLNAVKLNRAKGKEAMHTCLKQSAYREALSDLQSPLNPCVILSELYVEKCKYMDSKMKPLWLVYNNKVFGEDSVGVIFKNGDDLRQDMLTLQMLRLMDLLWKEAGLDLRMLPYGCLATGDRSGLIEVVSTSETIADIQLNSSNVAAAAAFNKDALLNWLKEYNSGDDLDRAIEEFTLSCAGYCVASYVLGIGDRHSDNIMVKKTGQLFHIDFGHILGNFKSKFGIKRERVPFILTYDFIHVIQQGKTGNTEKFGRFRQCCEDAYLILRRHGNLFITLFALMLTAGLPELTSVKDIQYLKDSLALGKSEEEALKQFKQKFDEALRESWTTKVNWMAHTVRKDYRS

Structure (SMILES) | IC50 [nM]
CNC(=O)NC1CCCN(Cc2cc3nc(-c4cccc5[nH]ccc45)nc(N4CCOCC4)c3s2)C1 (racemic) | 2510
COCC(=O)NC1CCCN(Cc2cc3nc(-c4cccc5[nH]ccc45)nc(N4CCOCC4)c3s2)C1 (racemic) | 6310
COCC(=O)NC1CCCN(Cc2cc3nc(-c4cnc(N)nc4)nc(N4CCOCC4)c3s2)C1 (racemic) | 10000
CC(=O)NC1CCCN(Cc2cc3nc(-c4cnc(N)nc4)nc(N4CCOCC4)c3s2)C1 (racemic) | 2000
CNC(=O)NC1CCN(Cc2cc3nc(-c4cnc(N)nc4)nc(N4CCOCC4)c3s2)C1 (racemic) | 1000
CS(=O)(=O)NC1CCN(Cc2cc3nc(-c4cccc5[nH]ccc45)nc(N4CCOCC4)c3s2)C1 (racemic) | 631
CC(=O)NC1CCCN(Cc2cc3nc(-c4cccc5[nH]ncc45)nc(N4CCOCC4)c3s2)C1 (racemic) | 6310
CNC(=O)NC1CCN(Cc2cc3nc(-c4cccc5[nH]ncc45)nc(N4CCOCC4)c3s2)C1 (racemic) | 2510
CS(=O)(=O)NC1CCCN(Cc2cc3nc(-c4cccc5[nH]ccc45)nc(N4CCOCC4)c3s2)C1 (racemic) | 1260
CC(=O)NC1CCCN(Cc2cc3nc(-c4cccc5[nH]ccc45)nc(N4CCOCC4)c3s2)C1 (racemic) | 2510
CS(=O)(=O)NC1CCN(Cc2cc3nc(-c4cccc5[nH]ncc45)nc(N4CCOCC4)c3s2)C1 (racemic) | 3160
COCC(=O)NC1CCCN(Cc2cc3nc(-c4cccc5[nH]ncc45)nc(N4CCOCC4)c3s2)C1 (racemic) | 6310
CNC(=O)NC1CCCN(Cc2cc3nc(-c4cnc(N)nc4)nc(N4CCOCC4)c3s2)C1 (racemic) | 2000
CNC(=O)NC1CCCN(Cc2cc3nc(-c4cccc5[nH]ncc45)nc(N4CCOCC4)c3s2)C1 (racemic) | 7940

Target: Phosphatidylinositol 4,5-bisphosphate 3-kinase catalytic subunit alpha isoform (Homo sapiens, UniProt P42336)
Conditions: not given

Chain of Phosphatidylinositol 4,5-bisphosphate 3-kinase catalytic subunit alpha isoform (P42336 whole entry, canonical isoform): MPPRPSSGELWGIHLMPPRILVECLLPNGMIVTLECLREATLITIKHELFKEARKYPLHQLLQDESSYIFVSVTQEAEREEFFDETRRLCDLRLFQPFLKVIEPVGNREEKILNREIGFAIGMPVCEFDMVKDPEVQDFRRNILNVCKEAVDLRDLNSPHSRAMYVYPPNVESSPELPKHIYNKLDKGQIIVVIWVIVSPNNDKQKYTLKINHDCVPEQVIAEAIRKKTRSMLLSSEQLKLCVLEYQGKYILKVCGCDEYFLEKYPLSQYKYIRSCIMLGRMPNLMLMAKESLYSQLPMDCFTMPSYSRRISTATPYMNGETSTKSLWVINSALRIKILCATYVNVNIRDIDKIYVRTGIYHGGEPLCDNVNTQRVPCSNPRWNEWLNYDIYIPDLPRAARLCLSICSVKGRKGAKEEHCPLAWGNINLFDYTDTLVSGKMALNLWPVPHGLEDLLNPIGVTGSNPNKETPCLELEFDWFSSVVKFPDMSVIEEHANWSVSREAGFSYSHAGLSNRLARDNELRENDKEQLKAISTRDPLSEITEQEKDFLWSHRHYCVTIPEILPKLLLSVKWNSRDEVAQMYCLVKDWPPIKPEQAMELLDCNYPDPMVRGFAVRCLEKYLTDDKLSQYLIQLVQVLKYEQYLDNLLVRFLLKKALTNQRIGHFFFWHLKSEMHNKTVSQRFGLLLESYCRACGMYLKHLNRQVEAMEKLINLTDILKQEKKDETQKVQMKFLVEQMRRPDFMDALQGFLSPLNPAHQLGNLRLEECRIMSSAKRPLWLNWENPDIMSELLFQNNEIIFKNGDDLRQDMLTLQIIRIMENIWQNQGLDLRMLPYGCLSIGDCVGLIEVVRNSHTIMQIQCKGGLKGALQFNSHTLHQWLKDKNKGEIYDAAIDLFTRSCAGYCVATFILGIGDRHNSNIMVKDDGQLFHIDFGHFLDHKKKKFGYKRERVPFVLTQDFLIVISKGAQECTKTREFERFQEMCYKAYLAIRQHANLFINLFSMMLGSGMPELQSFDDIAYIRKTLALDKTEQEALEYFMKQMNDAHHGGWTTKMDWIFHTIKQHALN

Structure (SMILES) | IC50 [nM]
CNC(=O)NC1CCCN(Cc2cc3nc(-c4cccc5[nH]ccc45)nc(N4CCOCC4)c3s2)C1 (racemic) | 3980
COCC(=O)NC1CCCN(Cc2cc3nc(-c4cccc5[nH]ccc45)nc(N4CCOCC4)c3s2)C1 (racemic) | 2510
COCC(=O)NC1CCCN(Cc2cc3nc(-c4cnc(N)nc4)nc(N4CCOCC4)c3s2)C1 (racemic) | 501
CC(=O)NC1CCCN(Cc2cc3nc(-c4cnc(N)nc4)nc(N4CCOCC4)c3s2)C1 (racemic) | 126
CNC(=O)NC1CCN(Cc2cc3nc(-c4cnc(N)nc4)nc(N4CCOCC4)c3s2)C1 (racemic) | 63.1
CS(=O)(=O)NC1CCN(Cc2cc3nc(-c4cccc5[nH]ccc45)nc(N4CCOCC4)c3s2)C1 (racemic) | 1580
CC(=O)NC1CCCN(Cc2cc3nc(-c4cccc5[nH]ncc45)nc(N4CCOCC4)c3s2)C1 (racemic) | 251
CNC(=O)NC1CCN(Cc2cc3nc(-c4cccc5[nH]ncc45)nc(N4CCOCC4)c3s2)C1 (racemic) | 316
CS(=O)(=O)NC1CCCN(Cc2cc3nc(-c4cccc5[nH]ccc45)nc(N4CCOCC4)c3s2)C1 (racemic) | 1580
CC(=O)NC1CCCN(Cc2cc3nc(-c4cccc5[nH]ccc45)nc(N4CCOCC4)c3s2)C1 (racemic) | 3980
CS(=O)(=O)NC1CCN(Cc2cc3nc(-c4cccc5[nH]ncc45)nc(N4CCOCC4)c3s2)C1 (racemic) | 251
COCC(=O)NC1CCCN(Cc2cc3nc(-c4cccc5[nH]ncc45)nc(N4CCOCC4)c3s2)C1 (racemic) | 398
CNC(=O)NC1CCCN(Cc2cc3nc(-c4cnc(N)nc4)nc(N4CCOCC4)c3s2)C1 (racemic) | 79.4
CNC(=O)NC1CCCN(Cc2cc3nc(-c4cccc5[nH]ncc45)nc(N4CCOCC4)c3s2)C1 (racemic) | 316
